This note sets out measurements from patent publication US6469028B1, “Synthesis and use of retinoid compounds having negative hormone and/or anatgonist activities” (Allergan, Inc., priority 1995, dated 2002).

Series [1] concerns cultured cervical carcinoma cells. Briefly: Example 23: cultured cervical carcinoma cells from a patient biopsy. The class given is cell-based. The settings on record: 10^−10 to 10^−6 M. The text has this:
A patient presenting with an advanced cervical carcinoma is first identified. A cervical biopsy is obtained according to methods that will be familiar to one having ordinary skill in the art. Cells from the explanted tumor are propagated in tissue culture according to standard techniques to provide cell numbers sufficient to allow division into three sample groups. Culture conditions described by Agarwal et al. in Cancer Res. 54:2108 (1994) are employed for this purpose. The first group is reserved as a control and receives vehicle alone (ethanol). The second group is treated with the RAR agonist retinoic acid at a concentration of from 10^−10 to 10^−6 M. The third group is treated with AGN 193109 at doses ranging from 10^−10 to 10^−6 M. Cells are fed with fresh growth medium daily and are provided with the retinoids described above as appropriate for each sample group. Cells are counted after three days using an electric cell counter.

The test system of a further series is hairless mice. Briefly: Example 2: skin irritation and weight loss by oral agonist, topical antagonist. The series is classed as in vivo. On the procedure:
Mice were simultaneously treated topically on the dorsal skin with vehicle (97.6% acetone/2.4% dimethylsulfoxide) or solutions of AGN 193109 in vehicle (6 ml/kg). Specific doses for the different treatment groups are give in Table 8. Treatments were administered daily for 4 consecutive days. Mice were weighed and graded for topical irritation daily as described in Example 1 up to and including 1 day after the last treatment. Percent body weight change is calculated by subtracting […], dividing by initial body weight, and multiplying by 100%. Topical irritation scores are calculated as described in Example 1.

In series [2] the test system is RAR-γ-VP-16 with ER-RXR-α.
[3] abbreviates: group E: topical AGN 193109 0.47 mg/kg/d alone.

For `Cc1ccc(C2=CCC(C)(C)c3ccc(C#Cc4ccc(C(=O)O)cc4)cc32)cc1` [Compound 60, 4-[(5,6-dihydro-5,5-dimethyl-8-(4-methylphenyl)-2-naphthalenyl)ethynyl]benzoic acid], the “cell number after three days” value in series [1] is reported as “dose-dependent decrease in cell number”. Also, the “Topical Irritation Score” value with hairless mice (group C: topical AGN 193109 […] + oral AGN 191183 0.26 mg/kg/d) was found to be 1 ± 1; with hairless mice (group D: topical AGN 193109 0.47 mg/kg/d + oral AGN 191183 0.26 mg/kg/d) it was 0 ± 1; in the series on hairless mice (setting [3]), 0 ± 0. Further, the “% Weight Gain or (Loss)” value is recorded as “(9 ± 5) %” with hairless mice (group C: topical AGN 193109 […] + oral AGN 191183 0.26 mg/kg/d, parentheses = loss); “(3 ± 5) %” in the series on hairless mice (group D: topical AGN 193109 0.47 mg/kg/d + oral AGN 191183 0.26 mg/kg/d, parentheses = loss); 3 ± 3% with hairless mice (setting [3]). Besides, in series [2] (AGN 193109 at 10^−8−10^−6 M (maximal inhibition)), the luciferase activity readings result is given as “approximately 16,000 rlu”. Also, in series [2] (cells cotransfected with ER-RXR-α and RAR-γ-VP-16), the “concentration of maximal inhibition of luciferase activity” value was “approximately 10^−8 M”. The “luciferase activity of triple transfectants” value in series [2] (no other retinoid added, 18 hours) is “dose dependent decrease in luciferase activity”.
